Source: US20250188040A1, “PHARMACEUTICAL COMPOSITIONS COMPRISING WRN HELICASE INHIBITORS” (Vividion Therapeutics, Inc., priority 2022, published 2025)
Read-outs that look alike come from different tables or passages of the source.

Tests used:
WRN C727 = biological target: T1, WRN C727 (Homo sapiens, UniProt Q14191); assay: Target engagement, in vitro (lysate), OCI-AML2; format: binding; conditions: read-out: OCI-AML2 WRN C727 TE50 in vitro (lysate)
T1 construct: endogenous in cells; host or cells: OCI-AML2
T1 sequence (Q14191 whole entry): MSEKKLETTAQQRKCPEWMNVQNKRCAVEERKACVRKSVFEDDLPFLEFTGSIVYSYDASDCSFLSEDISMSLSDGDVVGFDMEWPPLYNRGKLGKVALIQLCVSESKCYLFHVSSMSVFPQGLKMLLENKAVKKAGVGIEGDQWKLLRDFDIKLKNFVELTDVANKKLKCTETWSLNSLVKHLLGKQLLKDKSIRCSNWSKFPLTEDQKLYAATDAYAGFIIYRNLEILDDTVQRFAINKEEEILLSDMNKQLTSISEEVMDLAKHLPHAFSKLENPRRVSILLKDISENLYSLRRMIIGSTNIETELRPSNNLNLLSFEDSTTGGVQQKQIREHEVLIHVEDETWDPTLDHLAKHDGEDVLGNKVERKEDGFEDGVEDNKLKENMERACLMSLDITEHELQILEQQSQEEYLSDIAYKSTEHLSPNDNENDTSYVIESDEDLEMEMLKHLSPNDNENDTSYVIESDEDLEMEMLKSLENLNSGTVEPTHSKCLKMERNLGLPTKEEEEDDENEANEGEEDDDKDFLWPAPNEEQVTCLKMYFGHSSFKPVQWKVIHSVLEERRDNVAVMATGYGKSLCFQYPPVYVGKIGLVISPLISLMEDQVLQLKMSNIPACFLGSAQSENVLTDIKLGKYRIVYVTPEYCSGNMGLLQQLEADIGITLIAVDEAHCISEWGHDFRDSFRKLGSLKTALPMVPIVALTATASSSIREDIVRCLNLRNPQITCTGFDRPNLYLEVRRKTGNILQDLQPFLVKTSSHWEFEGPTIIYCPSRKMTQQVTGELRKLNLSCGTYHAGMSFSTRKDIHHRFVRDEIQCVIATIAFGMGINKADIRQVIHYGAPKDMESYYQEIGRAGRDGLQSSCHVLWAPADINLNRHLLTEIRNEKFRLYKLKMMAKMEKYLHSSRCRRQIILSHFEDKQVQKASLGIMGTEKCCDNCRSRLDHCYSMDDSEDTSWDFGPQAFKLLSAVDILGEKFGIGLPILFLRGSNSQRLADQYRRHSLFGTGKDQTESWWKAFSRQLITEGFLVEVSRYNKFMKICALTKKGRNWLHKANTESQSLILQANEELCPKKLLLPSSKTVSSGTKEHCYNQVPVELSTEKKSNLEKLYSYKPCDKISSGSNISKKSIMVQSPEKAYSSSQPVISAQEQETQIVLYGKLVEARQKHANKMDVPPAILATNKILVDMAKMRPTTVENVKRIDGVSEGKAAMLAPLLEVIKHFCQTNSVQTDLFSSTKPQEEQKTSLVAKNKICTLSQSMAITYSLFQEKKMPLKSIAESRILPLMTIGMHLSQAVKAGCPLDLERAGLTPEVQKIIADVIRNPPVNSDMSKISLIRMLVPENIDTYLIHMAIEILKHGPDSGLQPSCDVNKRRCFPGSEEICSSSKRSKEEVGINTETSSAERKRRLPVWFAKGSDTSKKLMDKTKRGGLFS
Protocol: Cells or cell lysates were treated with a dose response of compound followed by probe treatment, which labels solvent exposed cysteines. Proteins were enzymatically digested with trypsin and probe-labelled peptides were enriched with streptavidin. Isolated peptides were then separated using reversed-phase liquid chromatography on a C18 column (Dionex Ultimated 3000 nano-LC, Thermo). Peptides were analyzed by parallel reaction monitoring mass spectrometry (Exploris 120, Thermo).
Target engagement (%) is calculated relative to DMSO treated control samples.

[1] = biological target: hWRN(519-1227)_C-H3CV-GFP-10His (Homo sapiens, UniProt Q14191); assay: Helicase Assay for WRN Inhibition (ATP-dependent, fluorescence based)
Sequence of hWRN(519-1227)_C-H3CV-GFP-10His (Q14191 519-1227): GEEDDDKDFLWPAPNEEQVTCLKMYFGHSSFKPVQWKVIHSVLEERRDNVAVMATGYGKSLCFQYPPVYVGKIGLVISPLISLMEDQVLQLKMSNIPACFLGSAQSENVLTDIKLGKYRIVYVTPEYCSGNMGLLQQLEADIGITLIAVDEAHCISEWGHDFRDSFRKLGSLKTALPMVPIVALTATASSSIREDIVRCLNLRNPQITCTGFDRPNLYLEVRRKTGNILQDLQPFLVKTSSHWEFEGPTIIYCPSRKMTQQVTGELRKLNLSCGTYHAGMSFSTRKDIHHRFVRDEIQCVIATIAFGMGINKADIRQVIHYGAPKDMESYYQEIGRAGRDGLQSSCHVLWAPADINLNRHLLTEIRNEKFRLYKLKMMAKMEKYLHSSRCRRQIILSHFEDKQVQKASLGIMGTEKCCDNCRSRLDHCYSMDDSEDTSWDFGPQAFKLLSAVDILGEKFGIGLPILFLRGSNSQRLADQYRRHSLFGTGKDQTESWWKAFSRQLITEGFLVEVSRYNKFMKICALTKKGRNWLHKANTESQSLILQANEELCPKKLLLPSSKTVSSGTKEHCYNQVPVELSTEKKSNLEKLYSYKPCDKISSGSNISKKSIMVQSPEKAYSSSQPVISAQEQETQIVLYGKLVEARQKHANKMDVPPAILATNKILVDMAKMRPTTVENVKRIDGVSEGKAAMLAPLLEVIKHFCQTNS

[2] = WRN Helicase IC50, 30 min preincubation with ATP, 30 min reaction

IC50 (WRN C727)	IC50 [1, 2]	IC50 [1]	SMILES
> 100 µM	54 µM	–	CC(C)(C)c1ncc(C(=O)NC2(C=CS(C)(=O)=O)CC2)c(Oc2ccccc2)n1 (racemic) [Example 59, 2-(tert-butyl)-N-(1-(2-(methylsulfonyl)vinyl)cyclopropyl)-4-phenoxypyrimidine-5-carboxamide]
> 100 µM	85 µM	–	C[C@@H](/C=C/S(C)(=O)=O)NC(=O)c1cnc(C2CCCC2)nc1O[C@H]1CCCC[C@H]1O (single isomer, unassigned) [Example 129]
> 100 µM	50 µM	–	C[C@@H](/C=C/S(C)(=O)=O)NC(=O)c1cnc(C2CCCC2)nc1O[C@@H]1CCCC[C@@H]1O (single isomer, unassigned) [Example 130]
> 100 µM	24 µM	–	C[C@@H](/C=C/S(C)(=O)=O)NC(=O)c1cnc(C2CCCC2)nc1O[C@H]1CCCC[C@@H]1O (single isomer, unassigned) [Example 131]
> 100 µM	30 µM	–	C[C@@H](/C=C/S(C)(=O)=O)NC(=O)c1cnc(C2CCCC2)nc1O[C@@H]1CCCC[C@H]1O (single isomer, unassigned) [Example 132]
31.2 µM	13 µM	–	CC1CC[C@@H](C)N1c1ncc(C(=O)N[C@@H](C)/C=C/S(C)(=O)=O)c(Oc2ccccc2)n1 (stereo in doubt) [Example 172, 2-((2R,5S)-2,5-dimethylpyrrolidin-1-yl)-N—((S,E)-4-(methylsulfonyl)but-3-en-2-yl)-4-phenoxypyrimidine-5-carboxamide]
–	–	34 µM	O=C(NC1C=CS(=O)(=O)C1)c1cnc(C2CC2)nc1Oc1ccccc1 (stereo not drawn) [Example 27, 2-cyclopropyl-N-(1,1-dioxido-2,3-dihydrothiophen-3-yl)-4-phenoxypyrimidine-5-carboxamide]
> 100 µM	35 µM	–	CO[C@H](C)[C@@H](/C=C/S(C)(=O)=O)NC(=O)c1cnc(C2CC2)nc1Oc1ccccc1 [Example 32, 2-cyclopropyl-N-((3R,4R,E)-4-methoxy-1-(methylsulfonyl)pent-1-en-3-yl)-4-phenoxypyrimidine-5-carboxamide]
> 100 µM	–	26 µM	CS(=O)(=O)C1=CCN(C(=O)c2cnc(C3CC3)nc2Oc2ccccc2)C1 [Example 34, (2-cyclopropyl-4-phenoxypyrimidin-5-yl)(3-(methylsulfonyl)-2,5-dihydro-1H-pyrrol-1-yl)methanone]
> 100 µM	66 µM	–	C[C@@H](/C=C/S(C)(=O)=O)NC(=O)c1cnc(C2Cc3ccccc32)nc1Oc1ccccc1 (stereo partly drawn) [Example 52, 2-(bicyclo[4.2.0]octa-1,3,5-trien-7-yl)-N—((S,E)-4-(methylsulfonyl)but-3-en-2-yl)-4-phenoxypyrimidine-5-carboxamide]
> 100 µM	18 µM	–	C[C@@H](/C=C/S(C)(=O)=O)NC(=O)c1cnc(C2CCOC2)nc1Oc1ccccc1 (stereo partly drawn) [Example 79, N—((S,E)-4-(methylsulfonyl)but-3-en-2-yl)-4-phenoxy-2-(tetrahydrofuran-3-yl)pyrimidine-5-carboxamide]
21.8 µM	19 µM	–	Cc1ccc(Oc2nc(C3CCCC3)ncc2C(=O)NC/C=C/S(C)(=O)=O)cc1 [Example 104, (E)-2-cyclopentyl-N-(3-(methylsulfonyl)allyl)-4-(p-tolyloxy)pyrimidine-5-carboxamide]
> 100 µM	24 µM	–	Cc1ccccc1Oc1nc(C2CCCC2)ncc1C(=O)N[C@@H](C)/C=C/S(C)(=O)=O [Example 106, (S,E)-2-cyclopentyl-N-(4-(methylsulfonyl)but-3-en-2-yl)-4-(o-tolyloxy)pyrimidine-5-carboxamide]
> 100 µM	82 µM	–	CCc1ccc(Oc2nc(C3CCCC3)ncc2C(=O)N[C@@H](C)/C=C/S(C)(=O)=O)cc1 [Example 107, (S,E)-2-cyclopentyl-4-(4-ethylphenoxy)-N-(4-(methylsulfonyl)but-3-en-2-yl)pyrimidine-5-carboxamide]
> 100 µM	183 µM	–	Cc1ccc(Oc2nc(C3CCCC3)ncc2C(=O)N[C@@H](C)/C=C/S(C)(=O)=O)cc1C [Example 109, (S,E)-2-cyclopentyl-4-(3,4-dimethylphenoxy)-N-(4-(methylsulfonyl)but-3-en-2-yl)pyrimidine-5-carboxamide]
> 100 µM	44.4 µM	–	C[C@@H](/C=C/S(C)(=O)=O)NC(=O)c1cnc(C2CCCC2)nc1Oc1ccccn1 [Example 126, (S,E)-2-cyclopentyl-N-(4-(methylsulfonyl)but-3-en-2-yl)-4-(pyridin-2-yloxy)pyrimidine-5-carboxamide]
–	53 µM	–	C[C@@H](/C=C/S(C)(=O)=O)NC(=O)c1cnc(C2CC2)nc1OC1CCC(F)(F)C1 (stereo partly drawn) [Example 146, 2-cyclopropyl-4-((3,3-difluorocyclopentyl)oxy)-N—((S,E)-4-(methylsulfonyl)but-3-en-2-yl)pyrimidine-5-carboxamide]
–	110 µM	–	COC1CN(c2ncc(C(=O)N[C@@H](C)/C=C/S(C)(=O)=O)c(Oc3ccccc3)n2)C1 [Example 169, (S,E)-2-(3-methoxyazetidin-1-yl)-N-(4-(methylsulfonyl)but-3-en-2-yl)-4-phenoxypyrimidine-5-carboxamide]
–	27 µM	–	CS(=O)(=O)/C=C/CNC(=O)c1ccc(C2CCCC2)cc1OC1CCCC1 [Example 198, (E)-4-cyclopentyl-2-(cyclopentyloxy)-N-(3-(methylsulfonyl)allyl)benzamide]
–	–	77 µM	C[C@@H](/C=C/S(C)(=O)=O)NC(=O)c1ccc(C2CCCC2)c2cccnc12 [Example 203, (S,E)-5-cyclopentyl-N-(4-(methylsulfonyl)but-3-en-2-yl)quinoline-8-carboxamide]
–	96 µM	–	Cc1c(C2CC2)ncc(C(=O)N[C@@H](C)/C=C/S(C)(=O)=O)c1Oc1ccccc1 [Example 204, (S,E)-6-cyclopropyl-5-methyl-N-(4-(methylsulfonyl)but-3-en-2-yl)-4-phenoxynicotinamide]
–	–	63 µM	C[C@@H](/C=C/S(C)(=O)=O)NC(=O)c1cc2c(cc1Oc1ccccc1)CC(C)(C)C2=O [Example 248, (S,E)-2,2-dimethyl-N-(4-(methylsulfonyl)but-3-en-2-yl)-3-oxo-6-phenoxy-2,3-dihydro-1H-indene-5-carboxamide]
–	–	39 µM	CC1(C)Cc2cc(Oc3ccccc3)c(C(=O)N3CC(=CS(C)(=O)=O)C3)cc2C1=O [Example 249, 2,2-dimethyl-6-(3-((methylsulfonyl)methylene)azetidine-1-carbonyl)-5-phenoxy-2,3-dihydro-1H-inden-1-one]
–	103 µM	–	Cn1cnc2cc(C(=O)N[C@H](/C=C/S(C)(=O)=O)C3CC3)c(Oc3ccccc3)nc21 [Example 251, (S,E)-N-(1-cyclopropyl-3-(methylsulfonyl)allyl)-3-methyl-5-phenoxy-3H-imidazo[4,5-b]pyridine-6-carboxamide]
–	116 µM	–	N#C/C=C/CNC(=O)c1cnc(C2CC2)nc1Oc1ccccc1 [Example 266, (E)-N-(3-cyanoallyl)-2-cyclopropyl-4-phenoxypyrimidine-5-carboxamide]
–	29 µM	–	N#C/C=C\CNC(=O)c1cnc(C2CC2)nc1Oc1ccccc1 [Example 267, (Z)—N-(3-cyanoallyl)-2-cyclopropyl-4-phenoxypyrimidine-5-carboxamide]
–	64 µM	–	CS(=O)(=O)/C=C/CNC(=O)c1ccc(C2CCCC2)cc1OC1CC1 [Example 283, (E)-4-cyclopentyl-2-cyclopropoxy-N-(3-(methylsulfonyl)allyl)benzamide]
